Peptide text beside a SMILES is read from it. * marks the point of attachment. Palmitoyl = CCCCCCCCCCCCCCCC(=O)*; X1 = NCOCCOCCOCCCN*
Key:
papain [1] = target: T1, papain (Carica papaya, UniProt P00784); assay: Peptide degradation by proteases (Example 8b, PH-26 peptide); type: in vitro ADME
T1 sequence (P00784 134-345): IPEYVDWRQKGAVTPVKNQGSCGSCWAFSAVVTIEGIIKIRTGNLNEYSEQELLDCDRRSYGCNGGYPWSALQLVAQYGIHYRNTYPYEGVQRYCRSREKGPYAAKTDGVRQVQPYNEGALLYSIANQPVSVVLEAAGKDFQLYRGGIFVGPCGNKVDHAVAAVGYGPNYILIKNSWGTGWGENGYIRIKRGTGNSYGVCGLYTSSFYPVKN
Experimental: b) 20 mg of papain were added to the formulation of Comparative example 6c, and 1.5 mg of papain were added to a solution of 40 mg of the formulation of Example 1c in 1.0 mL of PBS buffer. Both samples were incubated at 40° C. Aliquots were taken at study times 0 h, 0.17 h, 0.3 h and 24 h, after the addition of papain, centrifuged at 1400 rpm for 1 min, and the supernatant was filtered using a 0.45 μm filter and analyzed by HPLC.
(§1) HPLC analysis was carried out in a Waters 996 instrument with a diode array detector equipped with Waters 2695 separations module and Millenium software; an Xbridge BEH130 C18 4.6×100 mm 3.5 μm reversed phase column by Waters was used. UV detection was performed at 220 nm and a mobile phase B gradient of 5 to 100% was performed for 8 minutes at 1.0 ml/min of flow. Under these conditions, the retention time of the peptide of formula (I) wherein R is palmitoyl (Matrixyl®, PP-4) is 6.4 min. Mobile phase A: 0.045% TFA/H2O, mobile phase B: 0.036% TFA/acetonitrile.

papain [2] = target: T1, papain; assay: Peptide degradation by proteases (Example 8a, PP-4 peptide); type: in vitro ADME
Experimental: a) 5 mg of each of the formulations of Example 1b and Comparative example 6b were incubated at 40° C. with 20 mg of papain. Samples were taken at study times 0 h, 0.3 h, 0.6 h, and 5 h after the addition of papain, centrifuged at 1400 rpm for 1 min, and the supernatant was filtered using a 0.45 μm filter and analyzed by HPLC.
as §1

| degradation with papain (in words) (papain [1]) | degradation with papain (in words) (papain [2]) | Structure (SMILES) |
| --- | --- | --- |
| nearly completely degraded | – | CCCCCCCCCCCCCCCC(=O)N[C@@H](CCCCN)C(=O)N[C@@H](C)C(=O)N[C@@H](CCC(N)=O)C(=O)N[C@@H](CCCCN)C(=O)N[C@@H](CCCNC(=N)N)C(=O)N[C@@H](Cc1ccccc1)C(=O)NCCCOCCOCCOCN [PH-26 peptide, R1-L-Lys-L-Ala-L-Gln-L-Lys-L-Arg-L-Phe-NH—(CH2)3—O—(CH2)2—O—(CH2)2—O—(CH2)—NH2] (Palmitoyl-KAQKRF-X1; N-terminus and C-terminus assumed) |
| – | completely degraded | CCCCCCCCCCCCCCCC(=O)N[C@@H](CCCCN)C(=O)N[C@H](C(=O)N[C@H](C(=O)N[C@@H](CCCCN)C(=O)N[C@@H](CO)C(=O)O)[C@@H](C)O)[C@@H](C)O [PP-4, Palm-L-Lys-L-Thr-L-Thr-L-Lys-L-Ser-OH] (Palmitoyl-KTTKS-OH) |
